The term DC50 denotes the midpoint of the concentration-degradation curve. A low value points to a more potent degrader. As a reminder, the Dmax is the largest share of the target that was removed.

The source of these data is patent publication US20240058457A1, “BTK DEGRADER” (Newave Pharmaceutical Inc., priority 2020, published 2024).

Data set [1] is described as follows: Mice PK study. Format: in vivo. The following applies: CD-1 mouse; for AUCinf(h*ng/mL)/(mg/kg): plasma, route not stated in table (text: oral PK profile). Here is the method:
The pharmacokinetics of compounds were evaluated in CD-1 mouse via Intravenous and Oral Administration. The IV dose was administered as a slow bolus in the Jugular vein, and oral doses were administered by gavage. The formulation for IV dosing is 5% DMSO in 20% HPBCD in water, and the PO formulation is 2.5% DMSO, 10% EtOH, 20% Cremphor EL, 67.5% D5W. The PK time point for the IV arm was 5, 15, 30 min, 1, 2, 4, 6, 8, 12, 24 hours post dose, and for PO arm was 15, 30 min, 1, 2, 4, 6, 8, 12, 24 hours post dose. Approximately 0.03 mL blood was collected at each time point. Blood of each sample was transferred into plastic micro centrifuge tubes containing EDTA-K2 and plasma was collected within 15 min by centrifugation at 4000 g for 5 minutes in a 4° C. centrifuge. Plasma samples were stored in polypropylene tubes. The samples were stored in a freezer at −75±15° C. prior to analysis. Concentrations of compounds in the plasma samples were analyzed using a LC-MS/MS method. WinNonlin (Phoenix™, version 6.1) or other similar software was used for pharmacokinetic calculations. The following pharmacokinetic parameters were calculated, whenever possible from the plasma concentration versus time data: IV administration: C0, CL, Vd, T1/2, AUCinf, AUClast, MRT, Number of Points for Regression; PO administration: Cmax, Tmax, T1/2, AUCinf, AUClast, F %, Number of Points for Regression. The pharmacokinetic data was described using descriptive statistics such as mean, standard deviation. Additional pharmacokinetic or statistical analysis was performed at the discretion of the contributing scientist, and was documented in the data summary.

Data set [2] has as its target T1, BTK (Homo sapiens, UniProt Q06187).
T1 construct: endogenous in cells; host or cells: Rec-1 cells (ATCC) / Ramos cells
As to the kind of experiment: BTK HTRF degradation assay. It is filed as cell-based. Conditions: treatment time 24 h; Cisbio Total-BTK HTRF; Rec-1 / Ramos cells. As for the experimental part:
Rec-1 cells were obtained from American Type Culture Collection and were grown in RPMI-1640 media (ATCC, 30-2001) supplemented with 10% heat-inactivated FBS (Corning Premium Fetal Bovine Serum from Fisher, MT35015CV). Compounds of the present invention were added to 50,000 Ramos cells in round-bottom 96 well plates with a final DMSO concentration of […] and were incubated at 37° C. 5% CO2 for different time. BTK levels were determined using Cisbio Total-BTK HTRF ([…] Time-Resolved Fluorescence) kit (63ADK064PEG) according to manufacturer's protocol. Briefly, cells were incubated in 1× supplied lysis buffer for 30 minutes. In an opaque white low volume 96 well plate (Cisbio, 66PL96005), cell lysate was combined with two different specific BTK antibodies, one conjugated with Eu3+-Cryptate FRET donor and one conjugated with d2 FRET acceptor. Assay controls include wells containing cell lysate with only the Eu3+-Cryptate FRET donor antibody and wells containing both HTRF antibodies and lysis buffer without cells or control lysate provided by Cisbio. HTRF ratio was calculated as (acceptor signal at 665 nm/donor signal at 620 nm)×[…]. Background HTRF levels were determined from the control well containing the donor, but no acceptor, antibody. Background HTRF levels were subtracted from all samples. Readouts were reported as HTRF levels relative to HTRF levels of DMSO-treated cells. Four-parameter non-linear regressions were performed in GraphPad Prism 7.02 to obtain DC50 values.

T1 sequence (Q06187 whole entry): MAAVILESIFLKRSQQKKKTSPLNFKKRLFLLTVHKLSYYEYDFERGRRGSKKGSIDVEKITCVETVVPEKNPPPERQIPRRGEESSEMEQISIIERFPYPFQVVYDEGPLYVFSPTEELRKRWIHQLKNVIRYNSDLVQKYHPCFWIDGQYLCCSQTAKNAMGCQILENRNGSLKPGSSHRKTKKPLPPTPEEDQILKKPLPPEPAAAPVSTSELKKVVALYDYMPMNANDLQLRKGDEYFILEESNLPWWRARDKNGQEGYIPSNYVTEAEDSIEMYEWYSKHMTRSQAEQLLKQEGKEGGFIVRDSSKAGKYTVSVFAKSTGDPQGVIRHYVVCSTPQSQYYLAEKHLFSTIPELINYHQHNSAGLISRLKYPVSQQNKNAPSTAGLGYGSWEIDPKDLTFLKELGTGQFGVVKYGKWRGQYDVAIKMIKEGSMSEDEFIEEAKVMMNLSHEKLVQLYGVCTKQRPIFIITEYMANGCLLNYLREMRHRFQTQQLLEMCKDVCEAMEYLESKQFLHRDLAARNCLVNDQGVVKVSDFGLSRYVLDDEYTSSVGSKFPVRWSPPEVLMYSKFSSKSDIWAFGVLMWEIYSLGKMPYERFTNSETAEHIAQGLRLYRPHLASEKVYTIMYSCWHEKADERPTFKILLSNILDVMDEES

With `C[C@H]1CN(C2CCN(c3ccc4c(c3)C(=O)N(C3CCC(=O)NC3=O)C4=O)CC2)CCN1c1ccc(Nc2cc(-c3ccnc(N4CCn5c(cc6c5CC(C)(C)C6)C4=O)c3CO)cn(C)c2=O)nc1` (stereo partly drawn) [Example 2, 5-{4-[(3S)-4-{6-[(2′-{4,4-dimethyl-9-oxo-1,10-diazatricyclo[6.4.0.0^{2,6}]dodeca-2(6),7-dien-10-yl}-3′-(hydroxymethyl)-1-methyl-6-oxo-[3,4′-bipyridin]-5-yl)amino]pyridin-3-yl}-3-methylpiperazin-1-yl]piperidin-1-yl}-2-(2,6-dioxopiperidin-3-yl)isoindole-1,3-dione], the “AUCinf(h*ng/mL)/(mg/kg)” value in data set [1] is given as 3,120 (h*ng/mL)/(mg/kg). For the same compound, in data set [2], it took 0.46 nM to reach half-maximal degradation (DC50) and the Dmax % came out at 96%.

The compound `C[C@H]1CN([C@H]2CCN3c4ccc5c(c4OC[C@@H]3C2)C(=O)N(C2CCC(=O)NC2=O)C5=O)CCN1c1ccc(Nc2cc(-c3ccnc(N4CCn5c(cc6c5CC(C)(C)C6)C4=O)c3CO)cn(C)c2=O)nc1.Cl` (stereo partly drawn) [Example 18, hydrochloride] displayed a 50% degradation concentration (DC50) in data set [2] of 22.8 nM.

`C[C@H]1CN([C@H]2CCN3c4ccc5c(c4OC[C@@H]3C2)C(=O)N(C2CCC(=O)NC2=O)C5=O)CCN1c1ccc(Nc2cc(-c3ccnc(N4CCn5c(cc6c5CC(C)(C)C6)C4=O)c3CO)cn(C)c2=O)nc1.Cl` (stereo partly drawn) [Example 18] had a Dmax % in data set [2] of 93%.

With `[2H]C([2H])([2H])n1cc(-c2ccnc(N3CCn4c(cc5c4CC(C)(C)C5)C3=O)c2CO)cc(Nc2ccc(N3CCN(C4CCN(c5ccc6c(c5)C(=O)N(C5CCC(=O)NC5=O)C6=O)CC4)C[C@@H]3C)cn2)c1=O` (stereo partly drawn) [Example 22, 5-(4-((S)-4-(6-((2′-(7,7-dimethyl-1-oxo-1,3,4,6,7,8-hexahydro-2H-cyclopenta[4,5]pyrrolo[1,2-a]pyrazin-2-yl)-3′-(hydroxymethyl)-1-(methyl-d3)-6-oxo-1,6-dihydro-[3,4′-bipyridin]-5-yl)amino)pyridin-3-yl)-3-methylpiperazin-1-yl)piperidin-1-yl)-2-(2,6-dioxopiperidin-3-yl)isoindoline-1,3-dione], the “oral PK profile (comparison)” value in data set [1] (oral) is recorded as “better oral PK profile than Example 2”. The “AUCinf(h*ng/mL)/(mg/kg)” value in data set [1] is given as 3,822 (h*ng/mL)/(mg/kg). Also, in data set [2], the DC50 came out at 1.1 nM and the maximal degradation (Dmax) was 98%.
